Measured values taken from patent US7335674B2, “Benzothiazole-4,7-diones and benzoxazole-4,7-diones with substituents in position 5 or 6 and method for production thereof” (Societe de Conseils de Recherches et d'Applications …, priority 2003, dated 2008).

What was measured:
[1] = test system: DU145 (human prostate cancer cells); assay: Antiproliferative activity, WST1 colorimetric test, DU145; type: cell-based; conditions: DU-145, treated 96 hours, up to 10 μM, read-out: IC50 on the cell proliferation of the DU-145 lines
Protocol: (§1) iii) Characterization of the Antiproliferative Activity:
(§2) By way of example, the effect of a treatment on two human cell lines Mia-Paca2 and DU145 by the compounds of the examples described previously will be studied. The cell lines DU145 (human prostate cancer cells) and Mia-PaCa2 (human pancreas cancer cells) were acquired from the American Tissue Culture Collection (Rockville, Md., USA). The cells placed in 80 μl of Dulbecco's Modified Eagle's medium (Gibco-Brl, Cergy-Pontoise, France) completed with 10% foetal calf serum inactivated by heating (Gibco-Brl, Cergy-Pontoise, France), 50,000 units/l of penicillin and 50 mg/l of streptomycin (Gibco-Brl, 10378-057, Cergy-Pontoise, France), and 2 mM of glutamine (Gibco-Brl, Cergy-Pontoise, France) were seeded on a 96-well plate on day 0. The cells were treated on day 1 for 96 hours with increasing concentrations of each of the compounds to be tested up to 10 μM. At the end of this period, quantification of cell proliferation is evaluated by a colorimetric test based on the cleavage of the tetrazolium salt WST1 by the mitochondrial dehydrogenases in viable cells leading to the formation of formazan (Boehringer Mannheim, Meylan, France). These tests are carried out in duplicate with 8 determinations per concentration tested. For each compound to be tested, the values included in the linear part of the sigmoid were retained for a linear regression analysis and used to estimate the inhibitory concentration IC50. The products are solubilized in dimethylsulphoxide (DMSO) at 10^−2 M and finally used in culture with 0.1% DMSO.

[2] = test system: Mia-Paca2 (human pancreas cancer cells); assay: Antiproliferative activity, WST1 colorimetric test, Mia-PaCa2; type: cell-based; conditions: MIA PaCa-2, Mia-Paca2, treated 96 hours, up to 10 μM, read-out: IC50 on the cell proliferation of the Mia-Paca2 lines
Protocol: as §1, §2

## Cc1cc(-c2nc3c(o2)C(=O)C(NCCN2CCCC2)=CC3=O)ccc1Br [Example 53, 2-(4-bromo-3-methylphenyl)-6-[(2-pyrrolidin-1-ylethyl)amino]-1,3-benzoxazole-4,7-dione]
other
  melting point: 171 to 172 °C
[1]
  IC50: ≤ 10 µM
[2]
  IC50: ≤ 10 µM

## O=C1C=C(NCCN2CCCC2)C(=O)c2oc(-c3ccc(Br)cc3Cl)nc21 [Example 55, 2-(4-bromo-2-chlorophenyl)-6-[(2-pyrrolidin-1-ylethyl)amino]-1,3-benzoxazole-4,7-dione]
other
  melting point: 153 to 154 °C
[1]
  IC50: ≤ 10 µM
[2]
  IC50: ≤ 10 µM

## COc1ccc(-c2nc3c(o2)C(=O)C(NCCN2CCCC2)=CC3=O)cc1OC [Example 57, 2-(3,4-dimethoxyphenyl)-6-[(2-pyrrolidin-1-ylethyl)amino]-1,3-benzoxazole-4,7-dione]
other
  melting point: 198.5 to 199.5 °C
[1]
  IC50: ≤ 10 µM
[2]
  IC50: ≤ 10 µM

## O=C1C=C(NCCN2CCCC2)C(=O)c2oc(Cc3c(F)cccc3Cl)nc21 [Example 58, 2-(2-chloro-6-fluorobenzyl)-6-[(2-pyrrolidin-1-ylethyl)amino]-1,3-benzoxazole-4,7-dione]
other
  melting point: 173 to 174 °C
[1]
  IC50: ≤ 10 µM
[2]
  IC50: ≤ 10 µM

## O=C1C=C(NCCN2CCCC2)C(=O)c2oc(-c3ccc4c(c3)OCO4)nc21 [Example 59, 2-(1,3-benzodioxol-5-yl)-6-[(2-pyrrolidin-1-ylethyl)amino]-1,3-benzoxazole4,7-dione]
other
  melting point: 171 to 172 °C
[1]
  IC50: ≤ 10 µM
[2]
  IC50: ≤ 10 µM
